Columns and labels:
HEK293T cells = test: Live cell fluorescence imaging and flow cytometry of DPP-2 and DPP-3 in HEK293T cells; format: cell-based, human; details: 1 μM DPP-2 for 15 min, microscopy or flow cytometry
Procedure: HEK293T (650,000 cells per dish) cells were plated with 1.5 mL of Dulbecco's Modified Eagle Medium (DMEM) (High Glucose, 10% fetal bovine serum (FBS)) in a 35 mm glass bottom dish (D35-10-1.5-N; Cellvis, Mountain View, Calif., United States of America) 24 hrs prior to imaging. 30 min before the addition of the DPP probe, the cell culture media was removed and cells were washed with 1 mL of Delbecco's phosphate-buffered saline (DPBS). The media was then replaced with 1 mL of DMEM containing 1 μM Hoechst 33342 and either 0.1% DMSO carrier as a control, 1 or 2 μM Palm B, 0.1, 1.0, or 5 μM ML348, and incubated for 30 min at 37° C. and 5% CO2. The media was removed, the cells were washed with 1 mL of Live Cell Imaging Solution (Thermo Fisher Scientific, Waltham, Mass., United States of America), and 1 mL of 1 μM DPP-2 or DPP-3 in Live Cell Imaging Solution was added to each plate. For ML348 0.1, 1.0, or 5 μM was added along with DPP-2 or DPP-3. After incubation for 15 min at 37° C. and 5% CO2, images were obtained on an inverted epi-fluorescence microscope (Olympus IX83; Olympus Corporation, Tokyo, Japan) attached with EMCCD camera (Photometrics EVOLVE™ Delta; Photometrics, Tucson, Ariz., United States of America) with 40× oil objective (N/A 1.3) for DPP-2 (excitation filter 500/20, dichroic chroma 89007, emission filter 535/30, exposure time 200 ms, EM gain 25), Hoechst 33342: (excitation filter 402/15, emission filter 455/50, dichroic chroma 89013, exposure time 30 ms, EM gain 25), and brightfield (exposure time 5 ms, EM gain 5), and for DPP-3 (exposure time 500 ms, EM gain 150), Hoechst 33342: (exposure time 30 ms, EM gain 25), and brightfield (exposure time 20 ms, EM gain 5). Analyses were performed in ImageJ. For data analysis, the average fluorescence intensity per image in each experimental condition was obtained by selecting regions of interest (ROIs) in the brightfield image. For display, the data were normalized to the average fluorescence intensity of the control conditions. Each experiment was repeated at least three separate times with identical results.
Cells were plated on a 10 cm dish with 10 mL of DMEM/High Glucose (10% FBS, 1% P/S, L-Glutamine, Sodium pyruvate) 36-48 hours prior to the day of experiment and maintained at 37° C., 5% CO2 so as to obtain 80-90% confluency. Cells were washed with DPBS and trypsinized with 1 mL 0.05% Trypsin. 5 mL of DMEM/High Glucose (10% FBS, L-Glutamine, Sodium pyruvate) was added and cells were spun down at 1200 rpm for 3 min. Media was discarded and cells were resuspended in 5 mL of Live Cell Imaging Solution and again spun down at 1200 rpm for 3 min. The cells pellets obtained were resuspended in 3-5 mL of Live Cell Imaging Solution and divided into 500 μL aliquots. The aliquots were treated with either 0.2% DMSO carrier or 1 μM of PalmB/ML348 or 1 μM/5 μM of ML349 inhibitor. After 30 min of incubation at room temperature, 1 μL of 2.5 mM DPP-3 in DMSO was added to each aliquot for a final concentration of 5 μM, and the solutions were mixed. After 5 min incubation at room temperature, fluorescence signal in FITC channel was measured for 10000 cells (5000 for HeLa experiments) on a LSR-Fortessa 4-15 HTS (BD digital instrument, 488 nm laser with 530/30 nm filter for FITC; BD, Franklin Lakes, N.J., United States of America). For analyzing DPP2 in HEK293T cells, the aliquots were treated with either 0.2% DMSO carrier or 2 μM of PalmB, 5 or 20 μM of ML348/ML349 and then analyzed by the protocol as mentioned above. Data was analyzed by FlowJo software version 10.0.8. For comparison of A431 starved versus non-starved, parallel 10 cm dishes of A431 cells were plated in 10 mL of DMEM (high glucose, 10% FBS, 1% P/S), and grown for 36 h. The growth media was removed, and replaced by 10 mL of either DMEM (High glucose) with 10% FBS to maintain “growth” conditions, or DMEM (High glucose) without FBS respectively for “starvation” conditions, and incubated for 14 h. […]

APT1 = biological target: T1, APT1 (Homo sapiens, UniProt O75608); test: In vitro kinetic assay and emission spectra of DPP-1, DPP-2, DPP-3 with purified APT1 (with detergent); format: biochemical
T1 construct: His-tag; made in house; host or cells: E. coli ROSETTA DE3
T1 sequence (O75608 whole entry): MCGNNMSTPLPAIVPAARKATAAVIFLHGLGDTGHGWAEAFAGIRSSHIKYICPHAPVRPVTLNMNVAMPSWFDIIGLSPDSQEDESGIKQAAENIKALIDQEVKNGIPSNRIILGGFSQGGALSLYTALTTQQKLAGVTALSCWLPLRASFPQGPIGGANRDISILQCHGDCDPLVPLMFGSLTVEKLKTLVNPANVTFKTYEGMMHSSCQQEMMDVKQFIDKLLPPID
Procedure: 50 μL of 7.5 μM DPP1-3 in HEPES (20 mM, pH=7.4, 150 mM NaCl, 0.1% Triton X-100) were added to a 384-well black flat bottom plate (Corning Life Sciences, Corning, N.Y., United States of America) and placed in an Infinite M200 Pro (Tecan, Mannedorf, Switzerland) plate reader at 37° C. for 5 min to warm. 25 μL of either 4-(2-hydroxyethyl)-1-piperazineethanesulfonic acid (HEPES) buffer alone or HEPES buffer containing 150 nM APT1 or APT2, was added using a multi-channel pipette, resulting in a final concentration of 5 μM DPP1-3 and 50 nM APT1 or APT2. Fluorescence intensities (λex 490/9 nm, λem 545/20 nm, Gain 70, No. of flashes 25, Integration time 100 μs and Z-position 20000 μm) were measured at 30 second (s) time intervals for 20 min. At the end of 20 min kinetic run, emission spectra were obtained (λex 485 nm, Aem510-700 nm, Gain 100, No. of flashes 25, Integration time 100 μs and Z-position 20,000 μm).

MDA-MB-231 cells = test: Flow cytometry of DPP-3 in MDA-MB-231 cells; format: cell-based, human; details: MDA-MB-231; 5 μM DPP-3, 5 min, flow cytometry
Procedure: (§1) Cells were plated on a 10 cm dish with 10 mL of DMEM/High Glucose (10% FBS, 1% P/S, L-Glutamine, Sodium pyruvate) 36-48 hours prior to the day of experiment and maintained at 37° C., 5% CO2 so as to obtain 80-90% confluency. Cells were washed with DPBS and trypsinized with 1 mL 0.05% Trypsin. 5 mL of DMEM/High Glucose (10% FBS, L-Glutamine, Sodium pyruvate) was added and cells were spun down at 1200 rpm for 3 min. Media was discarded and cells were resuspended in 5 mL of Live Cell Imaging Solution and again spun down at 1200 rpm for 3 min. The cells pellets obtained were resuspended in 3-5 mL of Live Cell Imaging Solution and divided into 500 μL aliquots. The aliquots were treated with either 0.2% DMSO carrier or 1 μM of PalmB/ML348 or 1 μM/5 μM of ML349 inhibitor. After 30 min of incubation at room temperature, 1 μL of 2.5 mM DPP-3 in DMSO was added to each aliquot for a final concentration of 5 μM, and the solutions were mixed. After 5 min incubation at room temperature, fluorescence signal in FITC channel was measured for 10000 cells (5000 for HeLa experiments) on a LSR-Fortessa 4-15 HTS (BD digital instrument, 488 nm laser with 530/30 nm filter for FITC; BD, Franklin Lakes, N.J., United States of America). For analyzing DPP2 in HEK293T cells, the aliquots were treated with either 0.2% DMSO carrier or 2 μM of PalmB, 5 or 20 μM of ML348/ML349 and then analyzed by the protocol as mentioned above. Data was analyzed by FlowJo software version 10.0.8. For comparison of A431 starved versus non-starved, parallel 10 cm dishes of A431 cells were plated in 10 mL of DMEM (high glucose, 10% FBS, 1% P/S), and grown for 36 h. The growth media was removed, and replaced by 10 mL of either DMEM (High glucose) with 10% FBS to maintain “growth” conditions, or DMEM (High glucose) without FBS respectively for “starvation” conditions, and incubated for 14 h. After trypsinization, both plates were treated with 5 mL of DMEM (high glucose) for spinning the cells down, and further processing and analysis were performed as described above by flow cytometry.

[1] = Water solubility of probes (stated in words); format: physicochemical
HeLa cells = test: Flow cytometry of DPP-3 in HeLa cells; format: cell-based, human; details: 5 μM DPP-3, 5 min, flow cytometry
Procedure: as §1

MCF-7 cells = test: Flow cytometry of DPP-3 in MCF-7 cells; format: cell-based, human; details: 5 μM DPP-3, 5 min, flow cytometry
Procedure: as §1

A431 cells = test: DPP-3 in A431 cells, starvation and EGF stimulation (flow cytometry, microscopy); format: cell-based, human; details: serum starved A431; 1 ng/mL EGF for 15 min; 5 μM DPP-3
Procedure: as §1
Parallel 35 mm glass bottom dishes (D35-10-1.5-N; Cellvis, Mountain View, Calif., United States of America) of A431 cells (450,000) were plated in 2 mL of DMEM glutamax (high glucose, 10% FBS, 1% P/S), and grown for 36 h. The growth media was removed, and replaced by 1.5 mL of either DMEM (High glucose) with 10% FBS to maintain “growth” conditions, or DMEM (High glucose) without FBS respectively for “starvation” conditions, and incubated for 24 h. […] For data analysis, the average fluorescence intensity per image in each experimental condition was obtained by selecting ROIs in the brightfield image. For display, the data were normalized to the average fluorescence intensity of the control conditions. […]

Row | enhancement in fluorescence signal (APT1; 5 μM probe, 50 nM APT1, 20 min) [fold] | selectivity for APT1 over APT2 (APT1; in vitro, purified APT1 vs APT2) | performance as substrate / reaction kinetics (APT1; purified APT1) | water solubility [1] | Compound | probe fluorescent signal in live cells (HEK293T cells) | detection of endogenous depalmitoylase activities by probe (MDA-MB-231 cells) | detection of endogenous depalmitoylase activities by probe (HeLa cells) | detection of endogenous depalmitoylase activities by probe (MCF-7 cells) | effect on depalmitoylation activity measured by DPP-3 (A431 cells)
1 | 400 | modest selectivity for APT1 over APT2 | striking reaction kinetics | water soluble | CCCCCCCC(=O)SC[C@@H](C(=O)N[C@@H](CCCCN)C(=O)OC)N(C)C(=O)Oc1ccc2c(c1)Oc1cc(N(C)C)ccc1C21OC(=O)c2ccccc21 (stereo partly drawn) [DPP-3] | functions in live cells | can detect endogenous depalmitoylase activities | can detect endogenous depalmitoylase activities | can detect endogenous depalmitoylase activities | 
2 |  |  |  |  | EGF: epidermal growth factor, obtained from Gold Biotechnology (NSDSECPLSHDGYCLHDGVCMYIEALDKYACNCVVGYIGERCQYRDLKWWELR; UniProt P01133 971-1023, looked up) |  |  |  |  | inhibition of depalmitoylation activity
